Calls of active or inactive are those of the source. No cut-off for these calls is given here.
Tests used:
[1] = target: T1, Amine oxidase [flavin-containing] B (Homo sapiens, UniProt P27338); experiment: biochemical; assay type: cell-based, BTI
T1 sequence (P27338 whole entry): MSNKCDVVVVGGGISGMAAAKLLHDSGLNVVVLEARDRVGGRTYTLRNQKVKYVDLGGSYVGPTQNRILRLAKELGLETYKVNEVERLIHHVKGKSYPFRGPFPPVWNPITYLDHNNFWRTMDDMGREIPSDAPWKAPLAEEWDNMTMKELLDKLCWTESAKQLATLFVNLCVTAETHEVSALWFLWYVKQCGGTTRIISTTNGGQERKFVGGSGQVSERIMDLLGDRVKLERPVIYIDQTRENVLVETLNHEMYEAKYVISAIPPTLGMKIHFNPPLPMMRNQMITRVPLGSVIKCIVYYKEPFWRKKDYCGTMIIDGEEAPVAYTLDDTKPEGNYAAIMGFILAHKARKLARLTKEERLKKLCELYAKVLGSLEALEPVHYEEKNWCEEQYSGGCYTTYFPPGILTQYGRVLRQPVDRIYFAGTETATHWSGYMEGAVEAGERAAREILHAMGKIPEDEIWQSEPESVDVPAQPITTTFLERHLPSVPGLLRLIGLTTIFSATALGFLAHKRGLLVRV
Description: Inhibition of recombinant human MAO-B expressed in baculovirus infected BTI cells using p-tyramine as substrate by fluorometric assay

MAO-A [2] = target: T2, MAO-A (Homo sapiens, UniProt P21397); experiment: Inhibition of recombinant human MAO-A expressed in baculovirus infected BTI cells at 10 uM using p-tyramine as substrate by fluorometric assay relative to control; conditions: probe p-tyramine
T2 sequence (P21397 whole entry): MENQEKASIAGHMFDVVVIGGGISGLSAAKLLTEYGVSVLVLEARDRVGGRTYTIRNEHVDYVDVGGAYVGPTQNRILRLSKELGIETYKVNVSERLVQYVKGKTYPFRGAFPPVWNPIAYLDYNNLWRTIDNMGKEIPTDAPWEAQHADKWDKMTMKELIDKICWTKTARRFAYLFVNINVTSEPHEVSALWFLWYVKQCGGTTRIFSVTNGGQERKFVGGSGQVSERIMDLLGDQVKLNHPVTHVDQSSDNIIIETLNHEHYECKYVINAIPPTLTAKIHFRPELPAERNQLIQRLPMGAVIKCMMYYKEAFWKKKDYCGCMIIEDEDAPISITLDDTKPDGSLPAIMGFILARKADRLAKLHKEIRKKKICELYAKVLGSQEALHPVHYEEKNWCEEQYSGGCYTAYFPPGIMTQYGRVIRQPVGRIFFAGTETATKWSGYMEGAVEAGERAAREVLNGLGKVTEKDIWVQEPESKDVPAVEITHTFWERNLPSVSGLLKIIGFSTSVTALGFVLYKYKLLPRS

Acetylcholinesterase [3] = target: T3, Acetylcholinesterase (Electrophorus electricus, UniProt O42275)
T3 sequence (O42275 whole entry): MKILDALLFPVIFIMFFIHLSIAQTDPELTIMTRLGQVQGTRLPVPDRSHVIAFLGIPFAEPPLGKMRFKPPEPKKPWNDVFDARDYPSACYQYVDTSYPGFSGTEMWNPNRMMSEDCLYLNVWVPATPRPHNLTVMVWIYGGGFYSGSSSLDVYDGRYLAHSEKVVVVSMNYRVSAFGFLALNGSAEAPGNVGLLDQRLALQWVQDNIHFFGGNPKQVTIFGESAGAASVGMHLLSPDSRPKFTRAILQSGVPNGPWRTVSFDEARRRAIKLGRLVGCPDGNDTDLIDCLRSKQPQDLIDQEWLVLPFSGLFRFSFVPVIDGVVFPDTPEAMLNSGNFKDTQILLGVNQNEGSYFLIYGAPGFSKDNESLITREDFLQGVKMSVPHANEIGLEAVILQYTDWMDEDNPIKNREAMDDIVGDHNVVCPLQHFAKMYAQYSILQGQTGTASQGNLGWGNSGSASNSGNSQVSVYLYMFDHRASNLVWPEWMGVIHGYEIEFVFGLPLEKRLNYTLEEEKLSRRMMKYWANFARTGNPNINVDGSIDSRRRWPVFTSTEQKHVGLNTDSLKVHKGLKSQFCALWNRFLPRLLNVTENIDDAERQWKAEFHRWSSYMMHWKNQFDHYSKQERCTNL
Description: Inhibition of Electric eel AChE using ATCI as substrate incubated for 5 mins followed by substrate addition and measured after 5 mins by spectrophotometric based Ellman's method

Cholinesterase [4] = target: Cholinesterase (Equus caballus, UniProt P81908)
Sequence of Cholinesterase (Equus caballus, UniProt P81908) (P81908 whole entry): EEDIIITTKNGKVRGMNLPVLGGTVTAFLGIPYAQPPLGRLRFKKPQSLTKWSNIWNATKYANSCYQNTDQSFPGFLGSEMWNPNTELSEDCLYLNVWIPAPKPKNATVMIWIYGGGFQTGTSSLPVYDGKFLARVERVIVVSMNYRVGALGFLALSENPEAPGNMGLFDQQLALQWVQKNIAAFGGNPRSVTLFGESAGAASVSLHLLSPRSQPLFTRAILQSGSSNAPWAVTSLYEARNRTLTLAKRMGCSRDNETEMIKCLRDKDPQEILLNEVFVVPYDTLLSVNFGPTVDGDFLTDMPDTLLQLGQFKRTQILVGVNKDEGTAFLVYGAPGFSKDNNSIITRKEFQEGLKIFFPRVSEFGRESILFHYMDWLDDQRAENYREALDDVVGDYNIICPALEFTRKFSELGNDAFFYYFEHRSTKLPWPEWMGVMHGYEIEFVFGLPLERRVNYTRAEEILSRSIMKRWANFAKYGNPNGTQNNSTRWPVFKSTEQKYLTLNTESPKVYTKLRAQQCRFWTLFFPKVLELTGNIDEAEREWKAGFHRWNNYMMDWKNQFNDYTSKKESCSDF
Description: Inhibition of equine serum BChE using BTCI as substrate incubated for 5 mins followed by substrate addition and measured after 5 mins by spectrophotometric based Ellman's method

MAO-A [5] = target: T2, MAO-A; experiment: in vitro; conditions: probe p-tyramine
Description: Inhibition of recombinant human MAO-A expressed in baculovirus infected BTI cells at 1 uM using p-tyramine as substrate by fluorometric assay relative to control

Histamine H3 receptor = Histamine H3 receptor (Homo sapiens, UniProt Q9Y5N1); experiment: biochemical
Sequence of Histamine H3 receptor (Q9Y5N1 whole entry): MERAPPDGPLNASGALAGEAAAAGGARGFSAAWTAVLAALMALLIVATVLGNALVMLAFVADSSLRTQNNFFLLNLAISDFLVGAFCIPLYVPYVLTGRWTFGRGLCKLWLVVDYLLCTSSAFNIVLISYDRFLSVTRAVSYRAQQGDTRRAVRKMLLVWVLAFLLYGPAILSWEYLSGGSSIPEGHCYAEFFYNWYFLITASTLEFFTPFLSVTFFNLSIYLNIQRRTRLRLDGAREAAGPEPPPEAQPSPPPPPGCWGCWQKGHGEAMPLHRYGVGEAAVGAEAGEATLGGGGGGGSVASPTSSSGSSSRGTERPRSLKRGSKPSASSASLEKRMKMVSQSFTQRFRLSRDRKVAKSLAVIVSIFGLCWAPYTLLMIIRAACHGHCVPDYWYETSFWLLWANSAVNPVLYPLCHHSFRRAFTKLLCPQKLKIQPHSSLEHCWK
Description: Displacement of [3H]N-alpha-methylhistamine from recombinant human histamine H3 receptor expressed in CHO-K1 cells by microbeta scintillation analysis

Acetylcholinesterase [6] = target: Acetylcholinesterase (Homo sapiens, UniProt P22303); experiment: Inhibition of recombinant human AChE using ATCI as substrate incubated for 5 mins followed by substrate addition and measured after 5 mins by spectrophotometric based Ellman's method
Sequence of Acetylcholinesterase (Homo sapiens, UniProt P22303) (P22303 whole entry): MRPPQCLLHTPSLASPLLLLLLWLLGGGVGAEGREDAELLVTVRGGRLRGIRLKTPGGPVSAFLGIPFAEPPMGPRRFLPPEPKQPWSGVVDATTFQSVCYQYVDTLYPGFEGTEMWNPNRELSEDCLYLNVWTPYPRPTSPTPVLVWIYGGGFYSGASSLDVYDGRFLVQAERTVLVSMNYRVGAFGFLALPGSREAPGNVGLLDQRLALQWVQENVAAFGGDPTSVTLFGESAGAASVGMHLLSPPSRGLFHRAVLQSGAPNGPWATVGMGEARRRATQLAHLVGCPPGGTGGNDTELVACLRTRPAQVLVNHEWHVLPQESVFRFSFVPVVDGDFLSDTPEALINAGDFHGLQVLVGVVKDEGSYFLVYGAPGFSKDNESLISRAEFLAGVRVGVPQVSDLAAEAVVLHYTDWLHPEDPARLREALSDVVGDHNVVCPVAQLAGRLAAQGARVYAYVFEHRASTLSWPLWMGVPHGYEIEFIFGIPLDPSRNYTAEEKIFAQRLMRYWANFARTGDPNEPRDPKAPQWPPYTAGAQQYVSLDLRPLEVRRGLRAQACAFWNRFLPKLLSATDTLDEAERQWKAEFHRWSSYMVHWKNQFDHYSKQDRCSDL

Mus musculus [7] = experiment: (§1) Analgesic activity in formalin-induced nociception CD-1 mouse model assessed as reduction in pain behaviour by measuring less licking of formalin injected hind paw compound administered intraperitoneally prior to formalin induction and measured during early phase (0 to 5 mins after formalin injection) by formalin test; assay type: functional; conditions: CD-1, ip, time 0-5 min
Mus musculus [8] = experiment: as §1, with “late” for “early”, “(15” for “(0”, “30” for “5”; assay type: functional; conditions: CD-1, ip, time 15-30 min
Rattus norvegicus [9] = experiment: Memory enhancement effect in dizocilpine-induced Wistar (Krf:WI) rat model of amnesia assessed as increase in step through latency at 1.25 to 5 mg/kg, ip measured after 30 to 45 mins by step-through passive avoidance test; assay type: functional, organism-based; conditions: dose 1.25-5 mg/kg, time 30-45 min
Rattus norvegicus [10] = experiment: Memory enhancement effect in dizocilpine-induced Wistar (Krf:WI) rat model of amnesia assessed as decrease in transfer latency time at 1.25 to 5 mg/kg, ip measured after 30 to 45 mins by elevated plus maze test; assay type: functional, organism-based; conditions: dose 1.25-5 mg/kg, time 30-45 min
[11] = target: Acetylcholinesterase (Electrophorus electricus) (UniProt O42275); experiment: Non-competitive inhibition of Electric eel AChE using ATCI as substrate incubated for 5 mins followed by substrate addition and measured after 5 mins by spectrophotometric based Lineweaver-Burk plot analysis; conditions: time 10.0 min
Sequence of Acetylcholinesterase (Electrophorus electricus) (O42275 24-633 limits assumed): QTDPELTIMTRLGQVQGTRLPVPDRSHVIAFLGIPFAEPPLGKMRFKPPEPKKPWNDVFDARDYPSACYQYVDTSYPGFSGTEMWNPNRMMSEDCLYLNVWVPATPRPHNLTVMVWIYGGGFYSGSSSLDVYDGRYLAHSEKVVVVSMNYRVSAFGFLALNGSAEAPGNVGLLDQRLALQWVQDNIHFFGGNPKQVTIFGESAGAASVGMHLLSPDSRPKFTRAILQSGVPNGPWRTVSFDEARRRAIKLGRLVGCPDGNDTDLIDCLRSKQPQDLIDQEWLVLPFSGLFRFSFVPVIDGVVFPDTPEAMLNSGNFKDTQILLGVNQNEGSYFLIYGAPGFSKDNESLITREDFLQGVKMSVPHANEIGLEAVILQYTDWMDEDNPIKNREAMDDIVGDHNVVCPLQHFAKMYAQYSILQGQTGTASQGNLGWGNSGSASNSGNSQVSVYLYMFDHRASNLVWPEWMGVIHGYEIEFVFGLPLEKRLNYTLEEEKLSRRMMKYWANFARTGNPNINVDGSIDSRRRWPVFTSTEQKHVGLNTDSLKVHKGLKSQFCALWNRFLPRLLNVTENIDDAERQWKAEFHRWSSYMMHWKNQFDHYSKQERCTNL

[12] = target: Acetylcholinesterase (Electrophorus electricus) (UniProt O42275); experiment: Non-competitive inhibition of Electric eel AChE using ATCI as substrate incubated for 5 mins followed by substrate addition and measured after 5 mins by spectrophotometric based Cornish-Bowden plot analysis; conditions: time 10.0 min
[13] = target: Cholinesterase (Equus caballus) (UniProt P81908); experiment: Non-competitive inhibition of equine serum BChE using BTCI as substrate incubated for 5 mins followed by substrate addition and measured after 5 mins by spectrophotometric based Lineweaver-Burk plot analysis; assay type: cell-free; conditions: time 10.0 min
Sequence of Cholinesterase (Equus caballus) (P81908 whole entry): as the sequence (P81908 whole entry) above

[14] = target: Cholinesterase (Equus caballus) (UniProt P81908); experiment: Non-competitive inhibition of equine serum BChE using BTCI as substrate incubated for 5 mins followed by substrate addition and measured after 5 mins by spectrophotometric based Cornish-Bowden plot analysis; assay type: cell-free; conditions: time 10.0 min
Cholinesterase [15] = target: Cholinesterase (Homo sapiens, UniProt P06276)
Sequence of Cholinesterase (Homo sapiens, UniProt P06276) (P06276 whole entry): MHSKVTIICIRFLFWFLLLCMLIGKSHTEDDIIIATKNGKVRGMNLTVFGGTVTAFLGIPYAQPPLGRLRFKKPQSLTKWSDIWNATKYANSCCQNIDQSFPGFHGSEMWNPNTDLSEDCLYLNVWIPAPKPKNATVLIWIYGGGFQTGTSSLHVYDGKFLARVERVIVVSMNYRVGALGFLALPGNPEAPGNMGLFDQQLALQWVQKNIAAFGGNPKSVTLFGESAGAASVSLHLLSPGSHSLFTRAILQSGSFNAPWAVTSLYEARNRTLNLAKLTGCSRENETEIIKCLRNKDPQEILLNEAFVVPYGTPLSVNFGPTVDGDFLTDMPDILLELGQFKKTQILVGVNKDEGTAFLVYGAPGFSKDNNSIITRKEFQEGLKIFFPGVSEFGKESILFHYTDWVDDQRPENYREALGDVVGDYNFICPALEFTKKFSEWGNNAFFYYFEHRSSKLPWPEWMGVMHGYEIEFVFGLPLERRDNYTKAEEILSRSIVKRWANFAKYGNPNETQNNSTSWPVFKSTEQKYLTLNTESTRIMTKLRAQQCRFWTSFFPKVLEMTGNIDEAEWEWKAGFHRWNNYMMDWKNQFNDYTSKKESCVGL
Description: Inhibition of human BuChE by spectrophotometric based Ellman's method

in vitro = conditions: PAMPA, pH 7.4
Description: Permeability of compound in PBS buffer assessed as permeability coefficient at pH 7.4 at 200 uM incubated for 5 hrs by PAMPA based LC-MS analysis

Acetylcholinesterase [16] = target: T3, Acetylcholinesterase; experiment: Inhibition of Electric eel AChE using ATCI as substrate preincubated with enzyme for 60 mins followed by substrate addition and measured for 120 secs by spectrophotometric based Ellman's method

| SMILES | IC50 [1] | inhibition at 10 µM (MAO-A [2]) | IC50 (Acetylcholinesterase [3]) | IC50 (Cholinesterase [4]) | inhibition at 1 µM (MAO-A [5]) | Ki (Histamine H3 receptor) | further results |
| --- | --- | --- | --- | --- | --- | --- | --- |
| CC1CCCN(CCCCCOc2ccc3oc4cc(Cl)ccc4c(=O)c3c2)C1 (stereo unspecified) | 1980 nM | < 50% | 353 nM | 2830 nM | 11% | 56 nM | – |
| O=c1c2cc(Cl)ccc2oc2ccc(OCCCCCCN3CCCCC3)cc12 | 1820 nM | < 50% | 620 nM | 954 nM | 8% | 282 nM | – |
| CC1CCN(CCCCCOc2ccc3oc4ccc(Cl)cc4c(=O)c3c2)CC1 | 673 nM | < 50% | 386 nM | 1100 nM | 5% | 140 nM | – |
| O=c1c2cc(Cl)ccc2oc2ccc(OCCCCCN3CCCCC3)cc12 | 756 nM | < 50% | 238 nM | 983 nM | 5% | 150 nM | – |
| O=c1c2ccc(Cl)cc2oc2ccc(OCCCCCN3CCCCCC3)cc12 | 2110 nM | < 50% | 314 nM | 1280 nM | 2% | 86 nM | – |
| Clc1ccc(CCCOCCCN2CCCCC2)cc1 [PITOLISANT] | – | – | – | – | 9% | – | – |
| CC1CCCN(CCCCCCOc2ccc3oc4cc(Cl)ccc4c(=O)c3c2)C1 (stereo unspecified) | 1830 nM | < 50% | 384 nM | 2040 nM | 42% | 1100 nM | – |
| O=c1c2ccc(Cl)cc2oc2ccc(OCCCCCCN3CCCCCC3)cc12 | 975 nM | < 50% | 235 nM | 1240 nM | 5% | 602 nM | – |
| O=c1c2ccccc2oc2ccc(OCCCCCN3CCCCC3)cc12 | 1500 nM | < 50% | 622 nM | 2540 nM | 6% | 172 nM | – |
| CC1CCCN(CCCCCOc2ccc3oc4ccccc4c(=O)c3c2)C1 (stereo unspecified) | 4200 nM | < 50% | 342 nM | 978 nM | 1% | 156 nM | – |
| CC1CCN(CCCCCCOc2ccc3oc4ccc(Cl)cc4c(=O)c3c2)CC1 | 720 nM | < 50% | 525 nM | 899 nM | 28% | 465 nM | – |
| CC1CCN(CCCCCOc2ccc3oc4ccccc4c(=O)c3c2)CC1 | 1860 nM | < 50% | 697 nM | 1090 nM | 1% | 110 nM | – |
| CC1CCCN(CCCCCOc2ccc3oc4ccc(Cl)cc4c(=O)c3c2)C1 (stereo unspecified) | 665 nM | < 50% | 691 nM | 685 nM | 2% | 148 nM | – |
| O=c1c2ccccc2oc2ccc(OCCCCCCN3CCCCCC3)cc12 | 385 nM | < 50% | 308 nM | 605 nM | 3% | 496 nM | – |
| CC1CCCN(CCCCCCOc2ccc3oc4ccccc4c(=O)c3c2)C1 (stereo unspecified) | 1550 nM | < 50% | 387 nM | 1150 nM | 4% | 100 nM | – |
| CC1CCN(CCCCCOc2ccc3oc4cc(Cl)ccc4c(=O)c3c2)CC1 | 1540 nM | < 50% | 421 nM | 1610 nM | 22% | 448 nM | – |
| C#CCN(C)CCCOc1ccc(Cl)cc1Cl [CLORGILINE] | – | – | – | – | 1.8% | – | – |
| CC1CCN(CCCCCCOc2ccc3oc4ccccc4c(=O)c3c2)CC1 | 856 nM | < 50% | 406 nM | 965 nM | 6% | 97 nM | – |
| CC1CCCN(CCCCCCOc2ccc3oc4ccc(Cl)cc4c(=O)c3c2)C1 (stereo unspecified) | 717 nM | < 50% | 307 nM | 1470 nM | 28% | 436 nM | – |
| CC1CCN(CCCCCCOc2ccc3oc4cc(Cl)ccc4c(=O)c3c2)CC1 | 1640 nM | < 50% | 561 nM | 1510 nM | 37% | 520 nM | – |
| O=c1c2ccccc2oc2ccc(OCCCCCCN3CCCCC3)cc12 | 939 nM | < 50% | 358 nM | 2000 nM | 4% | 1060 nM | – |
| O=c1c2cc(Cl)ccc2oc2ccc(OCCCCCN3CCCCCC3)cc12 | 897 nM | < 50% | 136 nM | 394 nM | 12% | 100 nM | IC50 (Acetylcholinesterase [6]): 120 nM; ED50 (Mus musculus [7]): 27.3 mg/kg; ED50 (Mus musculus [8]): 22.5 mg/kg; Activity (Rattus norvegicus [9]): inactive; Activity (Rattus norvegicus [10]): inactive; inhibition [11]: Active; inhibition [12]: Active; inhibition [13]: Active; inhibition [14]: Active; IC50 (Cholinesterase [15]): 1590 nM; Papp at 5 h, 200 µM (in vitro): 2.2 ×10⁻⁶ cm/s |
| O=c1c2ccc(Cl)cc2oc2ccc(OCCCCCCN3CCCCC3)cc12 | 946 nM | < 50% | 378 nM | 1980 nM | 8% | 203 nM | – |
| O=c1c2cc(Cl)ccc2oc2ccc(OCCCCCCN3CCCCCC3)cc12 | 1390 nM | < 50% | 270 nM | 545 nM | 23% | 238 nM | – |
| O=c1c2ccccc2oc2cc(OCCCCCN3CCCCC3)cc(O)c12 | – | – | – | – | – | – | IC50 (Acetylcholinesterase [16]): 460 nM |

Source: ChEMBL document CHEMBL4706551, “Rational design of new multitarget histamine H receptor ligands as potential candidates for treatment of Alzheimer's disease” (Eur J Med Chem, 2020)
